Measurements taken from the NIST ThermoML archive (doi:10.1021/je020215j).
Numbers after ± are expanded uncertainties.

Details: Crystal

Nc1c[nH]c(=O)[nH]c1=O [2,4(1H,3H)-pyrimidinedione, 5-amino-]
Details | vapor or sublimation pressure [kPa]
433.11 K | 1.941e-05 ± 2e-06
433.16 K | 2.072e-05 ± 2.1e-06
436.7 K | 2.56e-05 ± 2.6e-06
438.65 K | 3.333e-05 ± 3.4e-06
440.48 K | 3.89e-05 ± 3.9e-06
442.32 K | 4.794e-05 ± 4.8e-06
444.14 K | 5.231e-05 ± 5.2e-06
445.07 K | 5.373e-05 ± 5.4e-06
445.96 K | 6.018e-05 ± 6e-06
445.97 K | 5.707e-05 ± 5.7e-06
447.76 K | 6.664e-05 ± 6.7e-06
453.1 K | 9.97e-05 ± 1e-05

O=[N+]([O-])c1cnc(O)nc1O [2,4-pyrimidinedione, 5-nitro-]
Details | vapor or sublimation pressure [kPa]
431.25 K | 7.18e-06 ± 7.4e-07
433.14 K | 8.41e-06 ± 8.6e-07
434.95 K | 9.75e-06 ± 1e-06
434.98 K | 1.014e-05 ± 1e-06
436.81 K | 1.154e-05 ± 1.2e-06
438.63 K | 1.3e-05 ± 1.3e-06
440.46 K | 1.62e-05 ± 1.6e-06
442.17 K | 2.096e-05 ± 2.1e-06
442.27 K | 1.978e-05 ± 2e-06
445.93 K | 2.924e-05 ± 2.9e-06
447.76 K | 3.338e-05 ± 3.4e-06
453.11 K | 6.104e-05 ± 6.1e-06

Cn1c(N)cc(=O)n(C)c1=O [6-amino-1,3-dimethyluracil]
Details | vapor or sublimation pressure [kPa]
401.59 K | 9.9e-06 ± 1e-06
407.21 K | 1.673e-05 ± 1.7e-06
409 K | 1.845e-05 ± 1.9e-06
409.99 K | 2.309e-05 ± 2.3e-06
410.8 K | 2.478e-05 ± 2.5e-06
412.67 K | 2.874e-05 ± 2.9e-06
412.82 K | 3.133e-05 ± 3.1e-06
415.86 K | 4.477e-05 ± 4.5e-06
416.43 K | 3.968e-05 ± 4e-06
418.41 K | 5.345e-05 ± 5.4e-06
420.22 K | 6.082e-05 ± 6.1e-06
425.66 K | 0.0001053 ± 1.1e-05

Cn1c(N)cc(=O)[nH]c1=O [6-amino-1-methyluracil]
Details | vapor or sublimation pressure [kPa]
456.84 K | 2.824e-05 ± 2.8e-06
458.65 K | 3.188e-05 ± 3.2e-06
459.55 K | 3.807e-05 ± 3.8e-06
462.22 K | 4.621e-05 ± 4.6e-06
463.15 K | 5.015e-05 ± 5e-06
464.07 K | 5.429e-05 ± 5.5e-06
466.07 K | 6.44e-05 ± 6.5e-06
466.1 K | 6.38e-05 ± 6.4e-06
467.87 K | 7.507e-05 ± 7.5e-06
468.75 K | 7.967e-05 ± 8e-06
469.67 K | 8.597e-05 ± 8.6e-06
470.56 K | 9.083e-05 ± 9.1e-06

Nc1cc(O)nc(O)n1 [6-aminouracil]
Details | vapor or sublimation pressure [kPa]
478.6 K | 1.394e-05 ± 1.4e-06
478.61 K | 1.375e-05 ± 1.4e-06
480.4 K | 1.661e-05 ± 1.7e-06
482.16 K | 1.922e-05 ± 1.9e-06
483.92 K | 2.132e-05 ± 2.2e-06
485.6 K | 2.413e-05 ± 2.4e-06
485.7 K | 2.415e-05 ± 2.4e-06
487.5 K | 2.821e-05 ± 2.8e-06
489.24 K | 3.158e-05 ± 3.2e-06
491 K | 3.515e-05 ± 3.5e-06
491.02 K | 3.534e-05 ± 3.5e-06
492.65 K | 4.176e-05 ± 4.2e-06
